Results from publication PMC6154745 (Oncotarget, 2018).
Marks after values point to notes of the source that are not given here.

Tests used:
urinary bladder miRNAs = assay: miRNA expression (microarray), Study 3, urinary bladder; assay type: in vivo, ICR (CD-1) mice
Description: (§1) Each group was composed of 10 female mice.
(§2) The urine was collected for 8 h and pooled from the mice belonging to each experimental group in Study 3 by using metabolic cages during the day preceding euthanasia of mice. Immediately after sacrifice, a bronchoalveolar lavage (BAL) was performed and used for preparing BALF, and the blood was collected and used for preparing serum. BALF and blood serum were pooled within each experimental group. The organs reported in the general design of the studies were collected, as previously described. Immediately after collection, each organ or fluid was immersed in RNAlater and kept at -80°C for miRNA analysis. Portions of the organs used in Study 1 and Study 2 were stored at -80°C for evaluating DNA damage.
(§3) For evaluating the expression of pulmonary miRNAs we used the 7th generation miRCURY LNA™ microRNA Array (Exiqon), which contains 3,100 capture probes covering human, mouse and rat miRNAs. In particular, this array covers 1,135 mouse miRNAs, i.e. the 88.6% of the 1,281 mouse miRNAs listed in miRBase 19. Microarray analyses were carried out as previously described.
(§4) Treatment-related differences in body weights, in the frequency of MN NCE, and in the levels of pulmonary DNA adducts and 8-oxo-dGuo, all of them expressed as means ± SE within each group of mice, were evaluated for statistical significance by ANOVA followed by Student's t test for unpaired data. miRNA microarray data, after local background subtraction, log transformation, and normalization were analyzed by GeneSpring software (Agilent, Santa Clara, CA), and expression data were median centered by using the GeneSpring normalization option.

Body weight, Study 1 = assay type: in vivo, Swiss H mice; conditions: after 10 weeks
Source text: Strain H neonatal mice, used in Study 1, were born at the Animal Laboratory of the National Center of Oncology (Sofia, Bulgaria). The mice were housed in Makrolon™ cages on sawdust bedding and maintained on standard rodent chow (Kostinbrod, Bulgaria) and allowed drinking water ad libitum. Swiss ICR (CD-1) mice, either neonatal (Study 2) or two- month old (Study 3), were purchased from Harlan Laboratories (San Pietro al Natisone, Udine, Italy). The mice were housed in Makrolon™ cages on sawdust bedding and maintained on standard rodent chow (Teklad 9607, Harlan Laboratories) and tap water ad libitum. The animal room temperature was 23 ± 2°C, with a relative humidity of 55% and a 12 h day-night cycle. Housing and treatments of mice were in accordance with NIH, European (2010/63 UE Directive), and institutional guidelines. The issuance of the NIH Office of Laboratory Animal Welfare (OLAW) with the University of Genoa bears the identification number A5899-01 and is effective until February 28, 2021. The Institutional Animal Care and Use Committee (IACUC) protocol was approved by the Fox Chase Cancer Center Committee on April 13, 2015.
In Study 1 and Study 2, feeding of the drug-containing diet started after weanling (about 4 weeks) and continued until the 10th week of life.
as §4

skeletal muscle miRNAs = assay: miRNA expression (microarray), Study 3, skeletal muscle; assay type: in vivo, ICR (CD-1) mice
Description: as §1, §2, §3, §4

[1] = tested on: normochromatic erythrocytes; assay: Systemic genotoxicity: frequency of MN NCE in peripheral blood; assay type: in vivo, Swiss H mice; design: unit not given here
stomach miRNAs = assay: miRNA expression (microarray), Study 3, stomach; assay type: in vivo, ICR (CD-1) mice
Description: as §1, §2, §3, §4

liver miRNAs = assay: miRNA expression (microarray), Study 3, liver; assay type: in vivo, ICR (CD-1) mice
Description: as §1, §2, §3, §4

[2] = mice, 1,000 mg/kg diet; cited from earlier work
lung DNA = assay: Bulky DNA adducts in lung by 32P postlabeling, Study 1; assay type: in vivo, Swiss H mice
Description: as §1
(§5) DNA was extracted from tissue specimens (50 mg) collected individually from the lungs of 40 Swiss H mice used in Study 1 and from lungs, heart and liver of 80 ICR (CD-1) mice used in Study 2, as previously described. Bulky DNA adducts, after butanol enrichment, and 8-hydroxy-2’-deoxyguanosine (8-oxo-dGuo) were measured by ^32P postlabeling as previously described.

liver DNA = assay: Bulky DNA adducts by 32P postlabeling, Study 2, liver; assay type: in vivo, ICR (CD-1) mice; conditions: for Bulky DNA adducts: Liver; for increase of DNA adduct levels over sham-exposed mice: liver
Description: as §1, §5

brain miRNAs = assay: miRNA expression (microarray), Study 3, brain; assay type: in vivo, ICR (CD-1) mice; conditions: high dose
Description: as §1
as §2, with “damage. […]” for “damage.”
as §4

heart miRNAs = assay: miRNA expression (microarray), Study 3, heart; assay type: in vivo, ICR (CD-1) mice
Description: as §1, §2, §3, §4

urine miRNAs = assay: miRNA expression (microarray), Study 3, urine; assay type: in vivo, ICR (CD-1) mice
Description: as §1, §2, §3, §4

[3] = females, MCS-exposed mice given celecoxib
[4] = males, MCS-exposed mice given celecoxib
[5] = urine, low dose (20 mg/kg diet) vs sham

increase of pulmonary DNA adducts vs sham-exposed mice (lung DNA; MCS-exposed mice given celecoxib): 8.5 fold | increase of pulmonary DNA adducts vs sham-exposed mice (lung DNA; combined genders): 3.3 fold | Bulky DNA adducts (lung DNA; lung, F): 4.3 ± 0.34^b adducts/10^8 nucleotides | Bulky DNA adducts (lung DNA; lung, M): 4.3 ± 0.40^b adducts/10^8 nucleotides | Bulky DNA adducts (lung DNA; lung, M + F): 4.3 ± 0.25^b adducts/10^8 nucleotides | autoradiographic spots absent in sham-exposed mice (lung DNA; lung, MCS-free mice): 3 | Bulky DNA adducts (liver DNA; F): 1.8 ± 0.08^c adducts/10^8 nucleotides | Bulky DNA adducts (liver DNA; M): 1.6 ± 0.12^a adducts/10^8 nucleotides | Bulky DNA adducts (liver DNA; M + F): 1.7 ± 0.08^a adducts/10^8 nucleotides | increase of DNA adduct levels over sham-exposed mice (liver DNA; MCS-exposed mice treated with celecoxib, females): 1.5 fold | increase of DNA adduct levels over sham-exposed mice (liver DNA; MCS-exposed mice treated with celecoxib, males): 1.3 fold | increase of DNA adduct levels over sham-exposed mice (liver DNA; MCS-exposed mice treated with celecoxib, mixed genders): 1.4 fold | increase of DNA adduct levels over sham-exposed mice (liver DNA; combined genders): 1.4 fold | increase of DNA adduct levels over sham-exposed mice (liver DNA; females): 1.5 fold | increase of DNA adduct levels over sham-exposed mice (liver DNA; males): 1.3 fold
Structure (SMILES): Cc1ccc(-c2cc(C(F)(F)F)nn2-c2ccc(S(N)(=O)=O)cc2)cc1 [Celecoxib, 4-[5-(4-methylphenyl)-3-(trifluoromethyl)-1H-pyrazol-1-yl] benzene-1-sulfonamide]
miR-30c-2-3p downregulation (urinary bladder miRNAs; MCS-exposed mice): 7 fold | miR-30e upregulation (urinary bladder miRNAs; MCS-exposed mice): 6 fold | miR-185-5p downregulation (urinary bladder miRNAs; MCS-exposed mice): 14 fold | miR-701-3p upregulation (urinary bladder miRNAs; MCS-exposed mice): 5 fold | miR-802-3p upregulation (urinary bladder miRNAs; MCS-exposed mice): 5 fold | miR-1964-5p downregulation (urinary bladder miRNAs; MCS-exposed mice): 5 fold | upregulated/downregulated miRNAs (urinary bladder miRNAs; MCS-exposed mice): 8/12 | miR-30c-2-5p downregulation (urinary bladder miRNAs; MCS-free mice): 10 fold | miR-30e downregulation (urinary bladder miRNAs; MCS-free mice): 8 fold | miR-185-5p downregulation (urinary bladder miRNAs; MCS-free mice): 20 fold | miR-301 downregulation (urinary bladder miRNAs; MCS-free mice): 8 fold | upregulated/downregulated miRNAs (urinary bladder miRNAs; MCS-free mice): 0/10 | number of miRNAs modulated by celecoxib (urinary bladder miRNAs; high dose): 30 | body weight (Body weight, Study 1; [3]): 26.7 ± 0.56 g | body weight (Body weight, Study 1; females): 27.8 ± 0.80 g | body weight (Body weight, Study 1; [4]): 34.6 ± 1.55 g | body weight (Body weight, Study 1; males): 37.2 ± 0.97 g | miR-30e upregulation (skeletal muscle miRNAs; MCS-exposed mice): 9 fold | miR-125b downregulation (skeletal muscle miRNAs; MCS-exposed mice): 11 fold | miR-511 upregulation (skeletal muscle miRNAs; MCS-exposed mice): 5 fold | miR-695 downregulation (skeletal muscle miRNAs; MCS-exposed mice): 6 fold | miR-1964-5p downregulation (skeletal muscle miRNAs; MCS-exposed mice): 5 fold | upregulated/downregulated miRNAs (skeletal muscle miRNAs; MCS-exposed mice): 6/10 | upregulated/downregulated miRNAs (skeletal muscle miRNAs; MCS-free mice): 0/0 | number of miRNAs modulated by celecoxib (skeletal muscle miRNAs; high dose): 16 | frequency of MN NCE ([1]; females, 4 months of age): 0.8 ± 0.08 | frequency of MN NCE [1, 3]: 1.2 ± 0.08 | frequency of MN NCE ([1]; males, 4 months of age): 1.4 ± 0.12 | frequency of MN NCE [1, 4]: 2.2 ± 0.15 | miR-125b downregulation (stomach miRNAs; MCS-exposed mice): 9 fold | miR-802-3p upregulation (stomach miRNAs; MCS-exposed mice): 3 fold | upregulated/downregulated miRNAs (stomach miRNAs; MCS-exposed mice): 3/3 | miR-1964-5p downregulation (stomach miRNAs; MCS-free mice): 4 fold | upregulated/downregulated miRNAs (stomach miRNAs; MCS-free mice): 2/12 | number of miRNAs modulated by celecoxib (stomach miRNAs; high dose): 20 | upregulated/downregulated miRNAs (liver miRNAs; MCS-exposed mice): 2/1 | miR-30c-2-3p downregulation (liver miRNAs; MCS-free mice): 9 fold | miR-30e downregulation (liver miRNAs; MCS-free mice): 10 fold | miR-802-3p downregulation (liver miRNAs; MCS-free mice): 7 fold | upregulated/downregulated miRNAs (liver miRNAs; MCS-free mice): 0/15 | number of miRNAs modulated by celecoxib (liver miRNAs; high dose): 18 | plasma concentration [2]: 1600 ng/mL | number of miRNAs modulated by celecoxib (brain miRNAs): 0 | upregulated/downregulated miRNAs (heart miRNAs; MCS-exposed mice): 0/1 | upregulated/downregulated miRNAs (heart miRNAs; MCS-free mice): 0/2 | number of miRNAs modulated by celecoxib (heart miRNAs; high dose): 3 | number of miRNAs modulated (urine miRNAs; urine, high dose): 3 | number of miRNAs modulated (urine miRNAs; urine, low dose): 2 | miR-290 downregulation (urine miRNAs; [5]): 2.4 fold | miR-1945b downregulation (urine miRNAs; [5]): 2.4 fold | upregulated/downregulated miRNAs (urine miRNAs; urines, MCS-free mice): 0/3 | number of miRNAs modulated by celecoxib (urine miRNAs; urines, high dose): 3
